Read-outs that look alike come from different tables or passages of the source.
How the values were obtained:
[1] = test system: spontaneously hypertensive rats (SHRs); experiment: Antihypertensive effect in SHRs, intravenous, tail-cuff SBP/DBP; type: in vivo; conditions: 5 mg/kg intravenous single dose
Procedure: Animals were obtained from Vital River Laboratory Animal Technology (Beijing, China), who also performed the blood pressure measurements in spontaneously hypertensive rats (SHRs) with a tail systolic blood pressure (SBP) of over 180 mmHg. Animals were fed a normal diet, and tap water was freely available. SHRs (11 weeks, 240 ± 20 g body weight) were raised at room temperature (25 °C) under a 12 h light/dark cycle. […] Captopril (5 mg/kg) was used as a positive control, and the negative control group was injected with an equal volume of saline. The SBP and DBP of the rats were measured using the tail-cuff method before administration and at 2, 4, 6, 12, and 24 h post-administration, using a BP-98A blood pressure monitor (Softron Biotechnology, Beijing, China) after heating the SHRs at 37 °C for 30 min in a warming chamber. All the rats received humane care conforming to the National Institutes of Health Guide for Care and Use of Laboratory Animals. This study was approved by the Ethics Committee of Guangdong medical laboratory animal center (No. 20211001).
Statistical analysis was performed using SPSS 19.0 software ([…]). Experimental data are presented as means ± standard deviations (SD) and were statistically evaluated using one-way analysis of variance (ANOVA) with Duncan’s test. Origin 9.0 (OriginLab, Northampton, MA, USA) software was used to process the data.

ACE = conditions: cited from earlier work; for ACE-inhibitory activity, in words: shark meat hydrolysates, ref [16] Hao Wu et al.
From the text: (§1) Marine organisms, which are rich in unique bioactive proteins, have been widely used in the search for ACE-inhibitory peptides. According to previous studies, many novel ACE-inhibitory peptides with efficient antihypertensive effects were obtained from marine organisms. […] Liu et al. investigated the antihypertensive activity of a protein hydrolysate that was made from Rhopilema esc ...

SHRs = conditions: oral administration in SHRs; ref [17] Lee et al.; cited from earlier work
From the text: as §1

[2] = molecular target: T1, angiotensin-I-converting enzyme (ACE, EC 3.4.15.1, from rabbit lung) (rabbit) (UniProt P12822)
T1 sequence: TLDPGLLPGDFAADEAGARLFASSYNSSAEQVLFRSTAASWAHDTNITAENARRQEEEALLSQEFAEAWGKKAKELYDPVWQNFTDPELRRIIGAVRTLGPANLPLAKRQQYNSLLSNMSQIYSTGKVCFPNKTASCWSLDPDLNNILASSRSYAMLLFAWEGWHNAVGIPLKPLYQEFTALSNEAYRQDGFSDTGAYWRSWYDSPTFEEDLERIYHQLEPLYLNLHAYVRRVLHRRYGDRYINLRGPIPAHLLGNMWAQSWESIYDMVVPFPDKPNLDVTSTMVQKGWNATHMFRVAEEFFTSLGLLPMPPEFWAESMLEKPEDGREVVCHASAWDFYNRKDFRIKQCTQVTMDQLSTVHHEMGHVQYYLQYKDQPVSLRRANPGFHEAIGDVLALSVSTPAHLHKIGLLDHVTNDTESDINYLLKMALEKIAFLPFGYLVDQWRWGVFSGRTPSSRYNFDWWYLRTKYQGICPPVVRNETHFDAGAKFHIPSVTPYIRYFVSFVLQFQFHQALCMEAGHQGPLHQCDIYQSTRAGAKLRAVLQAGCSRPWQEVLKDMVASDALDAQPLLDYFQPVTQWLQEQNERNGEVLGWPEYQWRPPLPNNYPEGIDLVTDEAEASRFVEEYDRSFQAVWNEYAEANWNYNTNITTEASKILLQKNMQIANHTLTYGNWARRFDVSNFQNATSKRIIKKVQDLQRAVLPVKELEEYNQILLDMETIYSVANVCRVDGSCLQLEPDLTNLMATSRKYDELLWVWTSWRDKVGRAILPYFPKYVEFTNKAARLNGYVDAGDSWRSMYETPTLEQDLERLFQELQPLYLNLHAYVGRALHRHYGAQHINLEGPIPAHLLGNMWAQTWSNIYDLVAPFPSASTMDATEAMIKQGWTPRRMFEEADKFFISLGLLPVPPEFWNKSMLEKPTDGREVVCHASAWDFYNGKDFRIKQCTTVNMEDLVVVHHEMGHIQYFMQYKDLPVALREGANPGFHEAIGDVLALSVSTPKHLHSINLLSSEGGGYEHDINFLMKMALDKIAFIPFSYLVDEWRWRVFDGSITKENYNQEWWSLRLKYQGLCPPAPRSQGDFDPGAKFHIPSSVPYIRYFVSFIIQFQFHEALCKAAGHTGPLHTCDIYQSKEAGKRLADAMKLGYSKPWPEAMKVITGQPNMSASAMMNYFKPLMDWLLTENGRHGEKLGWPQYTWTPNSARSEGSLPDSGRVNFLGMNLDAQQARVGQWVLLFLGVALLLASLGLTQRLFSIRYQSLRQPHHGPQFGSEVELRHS

[3] = ref [14] Ghassem et al., read-out: IC50, ACE-inhibitory peptides from snakehead fish

For `C[C@H](CS)C(=O)N1CCC[C@H]1C(=O)O` [Captopril, captopril], the “systolic blood pressure (SBP) at 4 h” value ([1]; 4 h, p < 0.05) was 151 mmHg, the “systolic blood pressure (SBP) at 24 h” value ([1]; 24 h) was 161 mmHg and the “systolic blood pressure (SBP), starting value” ([1]; value from which SBP fell) was 190 mmHg.

For Cys-Phe, the “ACE-inhibitory activity, in words” value (ACE) is given as “high ACE-inhibitory activity”.

In the case of Glu-Tyr, the “ACE-inhibitory activity, in words” value (ACE) is given as “high ACE-inhibitory activity”.

In the case of “Gly-Asp-Leu-Gly-Lys-Thr-Thr-Thr-Val-Ser-Asn-Trp-Ser-Pro-Pro-Lys-Try-Lys-Asp-Thr-Pro [PTFP]”, the “antihypertensive effect, in words” value (SHRs) is given as “has an antihypertensive effect after oral administration in SHRs”, the “ACE inhibition mode, tuna frame peptide” value (ACE; ref [17] Lee et al.) is given as “non-competitive inhibitor” and the IC50 (ACE; ref [17] Lee et al., read-out: IC50, ACE-inhibitory peptide from tuna frame protein) is given as 11300 nM.

In the case of LYPPP, the IC50 (ACE; [3]) is given as 1300 nM.

For Met-Phe, the “ACE-inhibitory activity, in words” value (ACE) is given as “high ACE-inhibitory activity”.

For Phe-Glu, the “ACE-inhibitory activity, in words” value (ACE) is given as “high ACE-inhibitory activity”.

For YSMYPP, the IC50 (ACE; [3]) is given as 2800 nM.

PPLLFAAL [PPLLFAAL (Pro-Pro-Leu-Leu-Phe-Ala-Ala-Leu)] showed an ACE-inhibitory activity (hydrolysis of hippuryl-L-histidyl-L-leucine to hippuric acid, RP-HPLC at 220 nm, 37 °C, pH 8.3, 0.3 M NaCl), IC50 of the synthetic peptide [2] of 28 μmol·L^−1.
